Source: publication PMC4220016, “The binding characteristics and orientation of a novel radioligand with distinct properties at 5-HT3A and 5-HT3AB receptors” (Neuropharmacology, 2014)
Values joined by “and” are separate entries in the source; they are usually repeats but may differ in a detail not shown here. Equal values may be shown once. Read-outs that look alike come from different tables or passages of the source.

Experiments:
5-HT3A receptor Y153C = molecular target: T1, 5-HT3A receptor Y153C (Homo sapiens, UniProt P46098, Y148C); test: Saturation binding of [^3H]VUF10166 at 5-HT3A receptor mutant; settings: Y153C Kd versus wild type
T1 construct: expressed in transfected cells; host or cells: HEK 293
T1 sequence (P46098 24-478 Y148C): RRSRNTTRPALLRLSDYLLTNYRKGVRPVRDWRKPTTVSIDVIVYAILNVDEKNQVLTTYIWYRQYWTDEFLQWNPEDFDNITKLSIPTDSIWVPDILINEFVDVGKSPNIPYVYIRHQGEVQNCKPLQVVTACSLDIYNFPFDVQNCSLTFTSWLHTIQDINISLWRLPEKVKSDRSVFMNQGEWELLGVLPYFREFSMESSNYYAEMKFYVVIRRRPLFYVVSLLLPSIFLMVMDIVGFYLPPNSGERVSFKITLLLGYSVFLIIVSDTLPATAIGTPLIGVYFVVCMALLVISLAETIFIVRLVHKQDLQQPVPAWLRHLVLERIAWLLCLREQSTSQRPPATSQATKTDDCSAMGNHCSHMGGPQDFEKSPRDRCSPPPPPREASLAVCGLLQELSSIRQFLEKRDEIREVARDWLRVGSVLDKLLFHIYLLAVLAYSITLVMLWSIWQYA
Procedure: (§1) Mutagenesis was performed using the QuikChange method (Agilent Technologies Inc., California, USA) on human 5-HT3A cDNA (accession number: P46098) cloned into pcDNA3.1 (Invitrogen, Paisley, UK). Cysteine residues were substituted for amino acids throughout each of the binding loops A–E (Fig. 1). To facilitate comparisons with previous work, we use the numbering of the equivalent residues in the mouse 5-HT3A subunit; for human numbering 5 should be subtracted from each residue number.
(§2) All data were analysed using GraphPad Prism 4.03. […].

5-HT3A receptor F226C = molecular target: T2, 5-HT3A receptor F226C (Homo sapiens, UniProt P46098, F221C); test: as above; settings: F226C Kd versus wild type
T2 construct: expressed in transfected cells; host or cells: HEK 293
T2 sequence (P46098 24-478 F221C): as the sequence (P46098 24-478 Y148C) above, with C125Y, F198C counted along it
Procedure: as §1, §2

5-HT3A receptor L126C = molecular target: T3, 5-HT3A receptor L126C (Homo sapiens, UniProt P46098, L121C); test: as above; settings: L126C Kd versus wild type
T3 construct: expressed in transfected cells; host or cells: HEK 293
T3 sequence (P46098 24-478 L121C): as the sequence (P46098 24-478 Y148C) above, with L98C, C125Y counted along it
Procedure: as §1, §2

5-HT3A receptors [1] = molecular target: T4, 5-HT3A receptors (Homo sapiens, UniProt P46098); test: biochemical; assay type: binding; design: expressed in transfected cells; host or cells: HEK 293; settings: 5-HT3A; tritiated ligand, transfected HEK 293 cells, 0 °C; read-out: Kd (nM) saturation
T4 sequence (P46098 24-478): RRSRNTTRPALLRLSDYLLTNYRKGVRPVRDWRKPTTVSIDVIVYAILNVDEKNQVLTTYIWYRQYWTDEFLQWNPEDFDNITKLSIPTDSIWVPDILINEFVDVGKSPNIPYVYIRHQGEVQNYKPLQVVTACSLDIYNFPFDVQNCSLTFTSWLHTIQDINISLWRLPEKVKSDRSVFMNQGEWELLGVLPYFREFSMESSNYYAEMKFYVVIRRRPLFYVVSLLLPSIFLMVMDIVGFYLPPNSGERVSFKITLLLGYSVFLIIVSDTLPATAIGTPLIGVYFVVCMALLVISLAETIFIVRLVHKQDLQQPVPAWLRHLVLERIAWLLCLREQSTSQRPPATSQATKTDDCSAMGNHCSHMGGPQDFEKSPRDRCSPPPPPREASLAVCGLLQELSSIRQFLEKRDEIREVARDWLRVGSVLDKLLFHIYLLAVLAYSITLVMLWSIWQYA

α7 nACh receptors = α7 nACh receptors (Homo sapiens, UniProt P36544); settings: unlabelled VUF10166, ref Thompson et al., 2012; cited from earlier work
Chain of α7 nACh receptors (P36544 23-502): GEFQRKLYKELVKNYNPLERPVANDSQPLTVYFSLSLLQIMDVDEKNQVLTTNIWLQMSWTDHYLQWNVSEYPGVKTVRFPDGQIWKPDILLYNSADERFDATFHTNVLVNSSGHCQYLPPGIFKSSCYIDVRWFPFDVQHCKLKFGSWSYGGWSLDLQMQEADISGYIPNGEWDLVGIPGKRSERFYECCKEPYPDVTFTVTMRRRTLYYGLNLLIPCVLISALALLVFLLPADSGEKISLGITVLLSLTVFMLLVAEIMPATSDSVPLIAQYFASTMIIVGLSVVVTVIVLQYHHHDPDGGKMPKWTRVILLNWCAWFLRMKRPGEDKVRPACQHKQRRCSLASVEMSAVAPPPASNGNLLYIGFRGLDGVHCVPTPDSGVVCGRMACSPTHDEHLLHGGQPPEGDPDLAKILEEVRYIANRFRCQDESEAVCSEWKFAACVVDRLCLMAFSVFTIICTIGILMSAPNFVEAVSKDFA

5-HT3A receptors [2] = molecular target: T4, 5-HT3A receptors; test: Kinetic measurements (association, dissociation) at 5-HT3A receptors; assay type: binding; design: expressed in transfected cells; host or cells: HEK 293
5-HT3A receptors [3] = molecular target: T4, 5-HT3A receptors; test: biochemical
5-HT3AB receptors [4] = molecular target: T5, 5-HT3AB receptors (Homo sapiens, UniProt O95264+P46098); test: Kinetic measurements (association, dissociation) at 5-HT3AB receptors; assay type: binding; design: expressed in transfected cells; host or cells: HEK 293; settings: for koff: from kobs plot; for Kd: from kinetic rates, Equ (4), read-out: Kd(nM) (kon/koff)
T5 sequence (P46098 24-478): T4 sequence (P46098 24-478)
T5 sequence (O95264 22-441): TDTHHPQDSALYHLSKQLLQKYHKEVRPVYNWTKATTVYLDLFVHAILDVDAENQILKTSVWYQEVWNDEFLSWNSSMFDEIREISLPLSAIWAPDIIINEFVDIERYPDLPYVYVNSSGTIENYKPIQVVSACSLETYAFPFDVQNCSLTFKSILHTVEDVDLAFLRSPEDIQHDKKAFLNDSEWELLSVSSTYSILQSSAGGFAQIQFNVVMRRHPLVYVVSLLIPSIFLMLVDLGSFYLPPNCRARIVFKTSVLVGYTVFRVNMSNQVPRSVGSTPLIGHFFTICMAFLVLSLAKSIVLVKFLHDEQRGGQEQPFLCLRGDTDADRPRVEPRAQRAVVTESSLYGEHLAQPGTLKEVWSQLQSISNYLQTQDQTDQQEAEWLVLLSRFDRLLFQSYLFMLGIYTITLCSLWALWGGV

5-HT3AB receptors [5] = molecular target: T5, 5-HT3AB receptors; test: biochemical; settings: Ki (nM) competition
5-HT3A receptors [6] = molecular target: 5-HT3A receptors; design: method as in Thompson et al., 2012; settings: ref Thompson et al., 2012, cited from earlier work
5-HT3 receptors = test system: 5-HT3 receptors; design: method as in Thompson et al., 2012; settings: at μM concentrations; ref Thompson et al., 2012; cited from earlier work
5-HT3A receptors [7] = molecular target: T4, 5-HT3A receptors; settings: competition with 0.7 nM [^3H]BRL43694
5-HT3AB receptors [8] = molecular target: T5, 5-HT3AB receptors; settings: competition with 0.7 nM [^3H]BRL43694
5-HT3A receptors [9] = molecular target: T4, 5-HT3A receptors; test: Competition binding with [^3H]VUF10166 at 5-HT3A receptors
5-HT3AB receptors [10] = molecular target: T5, 5-HT3AB receptors; test: Competition binding with [^3H]VUF10166 at 5-HT3AB receptors

**Q.** With `CN1CCN(c2nc3ccccc3nc2Cl)CC1` [VUF10166, 2-chloro-3-(4-methylpiperazin-1-yl)quinoxaline] as the molecule, how does the Fold change (5-HT3A receptor Y153C) read?
**A.** 10

**Q.** What about the Fold change (5-HT3A receptor F226C) of the same molecule?
**A.** 7

**Q.** What about the Fold change (5-HT3A receptor L126C) of the same molecule?
**A.** ~4

**Q.** And the Kd (5-HT3A receptors [1])?
**A.** 0.18 ± 0.04 nM

**Q.** And the “competition with [^3H]epibatidine (in words)” value (α7 nACh receptors)?
**A.** does not compete

**Q.** What about the Kd (5-HT3A receptors [2]; calculated from kinetic rates, Equ (4), read-out: Kd(nM) (kon/koff)) of the same molecule?
**A.** 0.16 nM

**Q.** What about the koff (5-HT3A receptors [2]; intercept of plot of kobs versus radioligand concentration, read-out: koff (converted)) of the same molecule?
**A.** 0.000167 s⁻¹

**Q.** What about the kon (5-HT3A receptors [2]; slope of plot of kobs versus radioligand concentration, read-out: kon (converted)) of the same molecule?
**A.** 1.04e+06 M⁻¹ s⁻¹

**Q.** What about the Ki (5-HT3A receptors [3]) of the same molecule?
**A.** 0.24 ± 0.11 nM

**Q.** What about the kon (5-HT3AB receptors [4]; first component of two site fit, [^3H]VUF10166 < 3 nM) of the same molecule?
**A.** 1.02e+06 M⁻¹ s⁻¹

**Q.** What about the koff (5-HT3AB receptors [4]; first component, [^3H]VUF10166 < 3 nM, read-out: koff (converted)) of the same molecule?
**A.** 0.0004 s⁻¹

**Q.** And the Kd (5-HT3AB receptors [4]; first component)?
**A.** 0.38 nM

**Q.** And the Kd (5-HT3AB receptors [4]; second component (>3 nM))?
**A.** 22.4 nM

**Q.** What about the kon (5-HT3AB receptors [4]; second component of two site fit, [^3H]VUF10166 > 3 nM) of the same molecule?
**A.** 120000 M⁻¹ s⁻¹

**Q.** And the koff (5-HT3AB receptors [4]; second component, [^3H]VUF10166 > 3 nM)?
**A.** 0.0027 s⁻¹

**Q.** What about the koff (5-HT3AB receptors [4]; second component, [^3H]VUF10166 > 3 nM, read-out: koff (converted)) of the same molecule?
**A.** 0.00267 s⁻¹

**Q.** What about the Ki (5-HT3AB receptors [5]) of the same molecule?
**A.** 37 nM and 36.7 nM

**Q.** And the pKi (5-HT3A receptors [6]; 5-HT3A receptors)?
**A.** ~10

**Q.** And the “affinity at 5-HT3A relative to 5-HT3AB receptors” value (5-HT3A receptors [6])?
**A.** ~100 fold

**Q.** And the “agonist activity (in words)” value (5-HT3 receptors)?
**A.** low efficacy partial agonist

**Q.** What does the source list for `NC(N)=NC(N)=Nc1cccc(Cl)c1` [mCPBG, meta-chlorophenylbiguanide]?
**A.** pIC50 5-HT3A (5-HT3A receptors [7]): 6.88 ± 0.13 (7); pIC50 5-HT3AB (5-HT3AB receptors [8]): 6.64 ± 0.12 (5); inhibition of specific [^3H]VUF10166 binding (in words) (5-HT3A receptors [9]; 5-HT3A): inhibited; pIC50 5-HT3A (5-HT3A receptors [9]; competition with 0.2 nM [^3H]VUF10166): 7.49 ± 0.06 (4); inhibition of specific [^3H]VUF10166 binding (in words) (5-HT3AB receptors [10]; 5-HT3AB): inhibited; pIC50 5-HT3AB (5-HT3AB receptors [10]; competition with 0.6 nM [^3H]VUF10166): 6.07 ± 0.20 (5)
